Assay results taken from patent publication US20030207843A1, “Treatment of drug-resistant human immunodeficiency virus infection” (priority 1999, published 2003).
Like-named read-outs stand apart in the source and are kept apart here.

Columns and labels:
[1] = system: HIV-1LAI (wild type, control); assay: p24 reduction assay in MT-2 cells, wild type virus; type: cell-based
Procedure: (§1) Cells. MT-2 cells (AIDS Research and Reference Reagent Program, National Institute of Allergy and Infectious Diseases, National Institutes of Health) were maintained in RPMI 1640 supplemented with 10% fetal bovine serum (FBS; JRH Biosciences, Lenexa, Kans.), 10 mM HEPES buffer, 50 IU/ml penicillin and 50 μg/ml streptomycin.
Viruses. Stock virus was prepared by electroporating (BIO-RAD Gene Pulser®, Hercules, Calif.) MT-2 cells (1.3×10^7 cells) with 5-10 μg of plasmid DNA encoding a proviral clone of HIV-1LAI (see Nguyen, et. al., Antimicrob. Agents Chemother. 38:2409-2414, and Peden, et. al., Virology 185: 661-672.). At peak cytopathic effect (generally 5-7 days post-transfection), culture supernatants were harvested and stored at −80° C. Viral infectivity titers were determined in threefold endpoint dilution assays conducted in MT-2 cells (six wells per dilution). The 50% tissue culture infective dose (TCID50) was calculated using the Reed and Muench equation (see Reed, et. al., Am. J. Hyg. 27:493-496).
Antiviral Susceptibility Assays. The antiviral activity of each compound […], followed by incubation in the presence of three-fold serial drug dilutions (3 wells per dilution) (see Mellors, et. al., Antimicrob. Agents Chemother. 39:1087-1092). Five or seven days after infection, culture supernatants were harvested, lysed with 0.5% triton-X 100 and assayed for p24 antigen concentration using a commercial ELISA assay (DuPont, NEN Products, Wilmington, Del.). The antiviral activity of the compounds is expressed as the IC50, which is the concentration required to inhibit 50% of p24 antigen production. The fold-resistance of a test virus is calculated by dividing the IC50 of the test virus by the IC50 of the HIV-1LAI control virus.
Cultures of MT-2 cells infected with either wild type (xxLAI) or with the drug-resistant strains of HIV-1 listed above were treated with lipid analogs of PFA (B-PFA, MB-PFA, or EB-PFA). The μM concentration required to produce 50% inhibition of replication of the drug-resistant strain of HIV (EC50) was determined as shown in Table 1. Drug effects were measured by assaying p24 (a viral protein) in the culture medium.

[2] = system: 11163p3 (multinucleoside resistant clinical isolate); assay: p24 reduction assay in MT-2 cells, 11163p3; type: cell-based, HIV-1; conditions: Table 4; for EC50: 11163p3, mean ± SD; for Fold-resistance: 11163p3 relative to wild type virus
Procedure: as §1
(§2) Antiviral Susceptibility Assays. The antiviral activity of each compound was determined by inoculating MT-2 cells with HIV-1LAI at a multiplicity of infection (MOI) of 0.01 TCID50/cell, followed by incubation in the presence of three-fold serial drug dilutions (3 wells per dilution) (see Mellors, et. al., Antimicrob. Agents Chemother. 39:1087-1092). Five or seven days after infection, culture supernatants were harvested, lysed with 0.5% triton-X 100 and assayed for p24 antigen concentration using a commercial ELISA assay (DuPont, NEN Products, Wilmington, Del.). The antiviral activity of the compounds is expressed as the IC50, which is the concentration required to inhibit 50% of p24 antigen production. The fold-resistance of a test virus is calculated by dividing the IC50 of the test virus by the IC50 of the HIV-1LAI control virus.
(§3) The MNR panel consisted of a virus containing the mutations V75I, F77L, F116Y and […], a virus containing the T69S[SA insert], and a clinical isolate carrying the classic MNR genotype (62V/751/77L/116Y/151M). Each of the PFA invention compounds retained potency against these viruses with fold resistance values of <2.

[3] = system: 9GC (multinucleoside resistant recombinant virus D67E, S68T, T69S[SA insert], T215Y); assay: p24 reduction assay in MT-2 cells, virus 9GC; type: cell-based, HIV-1; conditions: Table 4; for EC50: virus 9GC, mean ± SD; for Fold-resistance: virus 9GC relative to wild type virus
Procedure: as §1, §2, §3

HIV-1LAI M184V/T215Y = assay: p24 reduction assay in MT-2 cells, M184V/T215Y; type: cell-based; conditions: Table 1, MOI 0.01
Procedure: as §1, §2
Generation of Mutant Recombinant HIV-1. HIV-1 containing the desired mutations were generated by oligonucleotide directed mutagenesis (Altered Sites II, Promega) as previously described (Mellors, et. al., Molecular Pharm. 41:446-451). After mutagenesis, mutant RT was subcloned into the pxxHIV-1LAI cloning vector using the silent XmaI and XbaI restriction sites located at the 5′ and 3′ ends of RT. Clones were DNA sequenced to verify the presence of the desired mutation(s) and electroporated into MT-2 cells as described above to generate infectious mutant recombinant HIV-1.
Mutant RT was generated via oligonucleotide-directed mutagenesis and ligated into the pXXHIV-1LAI cloning vector. Cloning was facilitated by the presence of two silent restriction sites at the 5′ and 3′ ends (Xma1 and Xba1, respectively) of pXXHIV-1LAI RT. […]

[4] = Human immunodeficiency virus 1, MT2
[5] = Table 1, HIV-1LAI(control), MOI 0.01, p24, MT-2 cells, read-out: EC50
[6] = Table 2, HIV-1LAI(control), MOI 0.05, read-out: EC50
[7] = Table 3, Wild type, mean ± SD, at least three experiments, read-out: EC50
[8] = Table 4, HIV-1LAI wild type, mean ± SD, two or three experiments, read-out: EC50
[9] = Table 5, Wild type, mean ± SD, read-out: EC50
[10] = Table 6, baseline virus HIV-1LAI passage 0, read-out: EC50

Compound | Fold-resistance [2] | Fold-resistance [3] | EC50 [1, 5] [nM] | EC50 [1, 6] [nM] | EC50 [1, 7] [nM] | EC50 [1, 8] [nM] | EC50 [1, 9] [nM] | EC50 (HIV-1LAI M184V/T215Y) [nM] | EC50 [2] [nM] | EC50 [3] [nM] | EC50 [1, 10] [nM] | further results
O=C(O)P(=O)(O)O [PFA, phosphonoformate, reference compound] | (0.9) | (1.1) |  |  |  |  |  |  |  |  |  | EC50 ([1]; Human immunodeficiency virus 1, MT2, Table 1, HIV-1LAI(control), MOI 0.01, p24, MT-2 cells, read-out: EC50): 18300 nM; EC50 ([1]; Human immunodeficiency virus 1, MT2, Table 2, HIV-1LAI(control), MOI 0.05, read-out: EC50): 20100 nM; EC50 ([1]; Human immunodeficiency virus 1, MT2, Table 3, Wild type, mean ± SD, at least three experiments, read-out: EC50): 17700 ± 10100 nM; EC50 ([1]; Human immunodeficiency virus 1, MT2, Table 4, HIV-1LAI wild type, mean ± SD, two or three experiments, read-out: EC50): 17700 ± 10100 nM; EC50 ([1]; Human immunodeficiency virus 1, MT2, Table 5, Wild type, mean ± SD, read-out: EC50): 17700 ± 10100 nM; EC50 ([1]; Human immunodeficiency virus 1, MT2, Table 6, baseline virus HIV-1LAI passage 0, read-out: EC50): 5270 nM; EC50 ([1]; Human immunodeficiency virus 1, MT2, Table 7, Wild type, mean (SD in next grid row), read-out: EC50): 13100 nM; EC50 [2, 4]: 15500 ± 5040 nM; EC50 [3, 4]: 13200 ± 12800 nM
CCCCCCCCCCCCCCCCCCOC[C@@H](O)COP(=O)(O)C(=O)O [B-PFA, 1-O-octadecyl-sn-glycero-3-PFA] | (0.6) | (1.6) | 1900 | 3010 | 1790 ± 810 | 1800 ± 810 | 1790 ± 810 | 1490 | 1100 ± 530 | 4100 ± 1200 |  | 
Cc1cn([C@H]2C[C@H](N=[N+]=[N-])[C@@H](CO)O2)c(=O)[nH]c1=O [AZT, 3′-Azido-3′-deoxythymidine] |  |  |  |  |  |  |  |  |  |  |  | EC50 ([1]; Human immunodeficiency virus 1, MT2, Table 8, Wild type, mean ± SD, read-out: AZT EC50): 21 ± 8 nM
CCCCCCCCCCCCCCCCCCOC[C@H](COP(=O)(O)C(=O)O)OCC [EB-PFA, 1-O-octadecyl-2-O-ethyl-sn-glycero-3-PFA] | (0.8) | (0) | 220 | 760 | 650 ± 360 | 700 ± 360 | 650 ± 360 | 480 | 500 ± 60 | 200 ± 300 | 90 | 
CCCCCCCCCCCCCCCCCCOC[C@H](COP(=O)(O)C(=O)O)OC [MB-PFA, 1-O-octadecyl-2-O-methyl-sn-glycero-3-PFA] | (0.9) | (0) | 350 | 1040 | 500 ± 480 | 500 ± 480 | 500 ± 480 | 540 | 400 ± 280 |  | 70 | 
